# Values of other authors in US11026985B2, “Methods for removing contaminants from plant-derived pharmaceuticals” (priority 2018, dated 2021).
# Test system: not given
# Conditions: permissible limit in Cannabis, State of Oregon
row,Compound,Action Level (ppm)
1,Spinosad,0.2
2,CC1C(c2ccc(Cl)cc2)SC(=O)N1C(=O)NC1CCCCC1 (stereo not shown) [Hexythiazox],1
3,N#Cc1c[nH]cc1-c1cccc2c1OC(F)(F)O2 [Fludioxonil],0.4
4,CCCN(CC)CC1COC2(CCC(C(C)(C)C)CC2)O1 (stereo not shown) [Spiroxamine],0.4
5,CCCCC(CC)CN1C(=O)C2C3C=CC(C3)C2C1=O (stereo not shown) [MGK-264],0.2
6,CNC(=O)Oc1cc(C)c(SC)c(C)c1 [Methiocarb],0.2
7,Abamectin,0.5
8,CCOc1cc(C(C)(C)C)ccc1C1COC(c2c(F)cccc2F)=N1 (stereo not shown) [Etoxazole],0.2
9,CCOC(=O)OC1=C(c2cc(C)ccc2C)C(=O)N[C@]12CC[C@@H](OC)CC2 [Spirotetramat],0.2
10,CNC(=O)c1cc(Cl)cc(C)c1NC(=O)c1cc(Br)nn1-c1ncccc1Cl [Chlorantraniliprole],0.2
11,CCCCCCCCCCCCC1=C(OC(C)=O)C(=O)c2ccccc2C1=O [Acequinocyl],2
12,CC(C)(C)C(O)(CCc1ccc(Cl)cc1)Cn1cncn1 (stereo not shown) [Tebuconazole],0.4
13,CCOC(=O)CC(SP(=S)(OC)OC)C(=O)OCC (stereo not shown) [Malathion],0.2
14,COc1ccc(-c2ccccc2)cc1NNC(=O)OC(C)C [Bifenazate],0.2
15,CNC(=O)O/N=C/C(C)(C)SC [Aldicarb],0.4
16,N#Cc1nn(-c2c(Cl)cc(C(F)(F)F)cc2Cl)c(N)c1[S+]([O-])C(F)(F)F (stereo not shown) [Fipronil],0.4
17,"CO/N=C(/C(=O)OC)c1ccccc1COc1ccccc1C [Kresoxim-methyl, Kresoxim- methyl]",0.4
18,CNC(=O)ON=C(C)SC [Methomyl],0.4
19,COP(=O)(OC)OC=C(Cl)Cl [DDVP (Dichlorvos)],0.1
20,COP(=S)(OC)SCN1C(=O)c2ccccc2C1=O [Phosmet],0.2
21,CCOP(=S)(OCC)Oc1cc(C)nc(C(C)C)n1 [Diazinon],0.2
22,COP(=O)(NC(C)=O)SC (stereo not shown) [Acephate],0.4
23,Cc1cc(C)c(C2=C(OC(=O)CC(C)(C)C)C3(CCCC3)OC2=O)c(C)c1 [Spiromesifen],0.2
24,C=CCOC(Cn1ccnc1)c1ccc(Cl)cc1Cl (stereo not shown) [Imazalil],0.2
25,O=C(Nc1ccccc1-c1ccc(Cl)cc1)c1cccnc1Cl [Boscalid],0.4

row,Compound,Action Level (ppm)
1,CNC(=O)Oc1cccc2c1OC(C)(C)C2 [Carbofuran],0.2
2,COCC(=O)N(c1c(C)cccc1C)C(C)C(=O)OC (stereo not shown) [Metalaxyl],0.2
3,CC(C)(C)c1ccc(CSc2cnn(C(C)(C)C)c(=O)c2Cl)cc1 [Pyridaben],0.2
4,CC1(C)C(C=C(Cl)Cl)C1C(=O)OCc1cccc(Oc2ccccc2)c1 (stereo not shown) [Permethrins],0.2
5,C#CCC1=C(C)C(OC(=O)[C@@H]2[C@@H](C=C(C)C)C2(C)C)CC1=O (stereo partly shown) [Prallethrin],0.2
6,CNC(=O)Oc1ccccc1OC(C)C [Propoxur],0.2
7,CCOC(=O)NCCOc1ccc(Oc2ccccc2)cc1 [Fenoxycarb],0.2
8,CN1COCN(Cc2cnc(Cl)s2)/C1=N\[N+](=O)[O-] [Thiamethoxam],0.2
9,CCCC1COC(Cn2cncn2)(c2ccc(Cl)cc2Cl)O1 (stereo not shown) [Propiconazole],0.4
10,Cc1nn(C)c(Oc2ccccc2)c1/C=N/OCc1ccc(C(=O)OC(C)(C)C)cc1 [Fenpyroximate],0.4
11,CNC(=O)CSP(=S)(OC)OC [Dimethoate],0.2
12,C/C(=N\C#N)N(C)Cc1ccc(Cl)nc1 [Acetamiprid],0.2
13,CNC(=O)O/N=C(\SC)C(=O)N(C)C [Oxamyl],1
14,CO/N=C(/C(=O)OC)c1ccccc1CO/N=C(\C)c1cccc(C(F)(F)F)c1 [Trifloxystrobin],0.2
15,CCOc1ccc(C(C)(C)COCc2cccc(Oc3ccccc3)c2)cc1 [Etofenprox],0.4
16,CCOCn1c(-c2ccc(Cl)cc2)c(C#N)c(Br)c1C(F)(F)F [Chlorfenapyr],1
17,CNC(=O)Oc1cccc2ccccc12 [Carbaryl],0.2
18,CCCCC(C#N)(Cn1cncn1)c1ccc(Cl)cc1 (stereo not shown) [Myclobutanil],0.2
19,Cc1c(COC(=O)[C@@H]2[C@H](/C=C(\Cl)C(F)(F)F)C2(C)C)cccc1-c1ccccc1 (racemic) [Bifenthrin],0.2
20,O=[N+]([O-])NC1=NCCN1Cc1ccc(Cl)nc1 [Imidacloprid],0.4
21,N#CCNC(=O)c1cnccc1C(F)(F)F [Flonicamid],1
22,CC1(C)C(C=C(Cl)Cl)C1C(=O)OC(C#N)c1ccc(F)c(Oc2ccccc2)c1 (stereo not shown) [Cyfluthrin],1
23,COP(=O)(OC)OC(Br)C(Cl)(Cl)Br (stereo not shown) [Naled],0.5
24,N#C/N=C1\SCCN1Cc1ccc(Cl)nc1 [Thiacloprid],0.2

# Test system: not given
# Conditions: not given
row,Compound,Water Soluble?
1,C=C(C)[C@@H]1CCC(C)=C[C@H]1c1c(O)cc(CCC)cc1O [Cannabidivarin],No
2,CCCCCc1cc(O)c(C/C=C(\C)CCC=C(C)C)c(O)c1 [Cannabigerol],No

# Test system: humans
# Conditions: not given
row,Compound,toxicity to humans
1,CCCCOCCOCCOCc1cc2c(cc1CCC)OCO2 [Piperonyl butoxide],non-toxic
